Test [1] addresses T1, DcpS (Caenorhabditis elegans, UniProt G5EFS4).
T1 sequence (G5EFS4 1-311): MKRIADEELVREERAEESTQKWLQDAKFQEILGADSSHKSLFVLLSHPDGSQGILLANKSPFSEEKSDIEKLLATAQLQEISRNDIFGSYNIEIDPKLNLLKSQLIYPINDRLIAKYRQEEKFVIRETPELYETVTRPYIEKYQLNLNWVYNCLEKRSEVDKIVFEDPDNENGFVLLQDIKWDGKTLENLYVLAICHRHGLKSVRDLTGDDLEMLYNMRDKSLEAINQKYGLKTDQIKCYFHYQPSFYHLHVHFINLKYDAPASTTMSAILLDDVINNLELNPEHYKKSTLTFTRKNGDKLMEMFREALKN
Put plainly: Enzymatic hydrolysis by C. elegans DcpS. The class given is biochemical. On the set-up: key: the analogs assigned as resistant remained completely undigested under the applied conditions; the analogs assigned as hydrolyzed were hydrolyzed by DcpS with efficiency comparable to the respective unmodified parent compound. The conditions noted are these: conditions giving complete degradation of unmodified parent within 40-90 min, RP HPLC. As to the method:
Human and nematode DcpS were expressed in Escherichia coli according to the procedures described previously (L. S. Cohen et al., “Nematode m7 GpppG and m3(2,2,7)GpppG decapping: activities in Ascaris embryos and characterization of C. elegans scavenger DcpS,” RNA, vol. 10, pp. 1609-1624 (2004)). Both proteins were stored at −80° C. in 20 mM Tris buffer, pH 7.5, containing 50 mM KCl, 0.2 mM EDTA, 1 mM DTT, 0.5 mM PMSF, and 20% glycerol. An appropriate cap analog at 1 mM concentration was treated with 5.0 or 7.0 μl of DcpS (from human or C. elegans, respectively) in 500 μl of 50 mM TRIS buffer, pH=7.9, containing 20 mM of MgCl2 and 60 mM of (NH4)2SO4 at 37° C. for 60-90 min. Every 15-20 min a 100 μl sample was collected from the reaction mixture and deactivated by incubation in 90° C. for 3 min. Collected samples were analyzed without further treatment by analytical RP HPLC using a linear gradient of methanol in 0.1 M KH2PO4, pH=6.0, from 0-50% within 15 min and UV-detection at 260 nm.
The new series of S-analogs were subjected to in vitro enzymatic hydrolysis catalyzed by DcpS from both human and C. elegans sources. In all experiments, the corresponding unmodified cap analog was used as a positive control, i.e., m^7GpppG for non-ARCA S-analogs and m2^7,2′-OGpppG for S-ARCAs. The amount of DcpS enzyme was optimized to provide complete degradation of the control substrate within 40-90 min. The samples collected from reaction mixtures at various time intervals were analyzed by RP HPLC (as described in Materials and Methods).
In Table 4, cap analogs at 4 μM concentration were subjected to enzymatic digestion by DcpS in conditions leading to complete degradation of the unmodified parent compound (i.e. m^7GpppG for non-ARCA S-analogs and m2^7,2′-OGpppG for ARCAs) within 40-90 min. Samples collected from reaction mixtures at various time intervals were analysed by RP HPLC with UV detection at 260 nm as described in Materials and Methods. […] The result was unchanged even if the reaction time was extended to 24 h, various amounts of enzyme were used, and composition of the reaction buffer was modified.

The test system of test [2] is HC11 cells. Put plainly: Translational efficiency of capped luciferase mRNA in HC11 cells. Type of test: cell-based, mouse. The conditions noted are these: Luc-A60 mRNA capped with the analog in HC11 cells, relative to m^7Gp3G-capped mRNA. The protocol:
Two methods, electroporation and nucleoporation, were used to deliver RNA into cells. In case of electroporation, 5 μg of RNA were introduced into 10^7 HC11 cells in a total volume 400 μl of serum-reduced RPMI 1640 medium in a Gene pulser cuvette (4 mm gap) with a Bio-Rad Genepulser™ set at 0.22 kV and 960 μF. Following discharge, the cells were washed twice with PBS, centrifuged for 2 min 300×g at room temperature, resuspended in prewarmed complete medium, and placed at 37° C. Nucleoporation was performed with an Amaxa Nucleofector II (Amaxa Biosystems) in accordance with manufacture's recommendations. One microgram of RNA was introduced into 10^6 HC11 cells with Nucleofector Solution V and the set of recommended regimens (program T-024).
For measurement of translational efficiency, cells were divided into several Eppendorf tubes, placed in a water bath at 37° C., and shaken. For measurement of mRNA stability, cells were distributed into 35-mm cell culture dishes and placed at 37° C. in a 5% CO2 humidified atmosphere. Cells were harvested at various times and washed twice with PBS.
For cytoplasmic RNA extraction, 2×10^5 cells were lysed in 175 μl of lysis buffer (50 mM Tris-HCl, pH 8.0, 140 mM NaCl, 1.5 mM MgCl2, 0.5% (v/v) Igepal (Sigma), and 1 mM dithiothreitol). RNAs were further purified using the RNeasy mini kit. For protein extraction, 2×10^5 cells were lysed in 200 μl of Luciferase Cell Culture Lysis Reagent (Promega). Luciferase activity of cell extracts was measured according to the manufacturer's protocol (Promega).
We also determined the translational efficiency in cultured cells for luciferase mRNA capped with S-ARCAs. This involved two measurements conducted at various times following nucleoporation—luciferase activity measured by luminometry in cleared cell lysates, and Luc-A60 levels measured by real-time PCR. Luciferase activity was normalized by the amount of luciferase mRNA that had been delivered into cells. To determine the amount of RNA present in the cells at a time immediately after nucleoporation, i.e., before any decay had occurred, cells were harvested at various times between 2 to 8 h post-nucleoporation, and cytoplasmic RNA was extracted. The amount of luciferase mRNA was measured by real time PCR using primers that amplify sequences near the 5′-end. Luciferase mRNA remaining at each time point was plotted as log10 ([RNA]) versus time to determine t1/2. The curve was extrapolated to 0 h, and the amount of RNA delivered into the cells was calculated. We defined conditions under which the accumulation of luciferase was linear with time, after an initial lag period of ˜30 min for recruitment of mRNA to ribosomes, completing the first polypeptide chain, and release of luciferase into the cytosol.

As for `CO[C@@H]1[C@H](O)[C@@H](COP(=O)(O)OP(=O)([O-])OP(=O)(O)OC[C@H]2O[C@@H](n3cnc4c(=O)[nH]c(N)nc43)[C@H](O)[C@@H]2O)O[C@H]1n1c[n+](C)c2c(O)nc(N)nc21` [m2^7,2′-OGpppG, reference compound], in test [1], the “Resistance to enzymatic hydrolysis by DcpS (from C. elegans)” value (shortened to “Resistance to enzymatic hydrolysis”) is given as “hydrolyzed”. In test [2], this compound gave a Relative translational efficiency of 2.1 ± 0.2.

As for m2^7,2′-OGpppsG (D1) [Compound 4a], in test [1], the “Resistance to enzymatic hydrolysis” value is on record as “hydrolyzed”. The compound also showed a Relative translational efficiency in test [2] of 2.5 ± 0.8.

In the case of m2^7,2′-OGpppsG (D2) [Compound 4b], the “Resistance to enzymatic hydrolysis” value in test [1] is reported as “hydrolyzed”. Further, in test [2], the Relative translational efficiency was 1.8 ± 0.4.

Consider m2^7,2′-OGppspG (D1) [Compound 5a], for which, in test [1], the “Resistance to enzymatic hydrolysis” value is “hydrolyzed”. The Relative translational efficiency in test [2] (listed as m2^7,2′-OGppSpG (D1)) is 2.8 ± 0.3; in test [2] (listed as m2^7,2′-OGppspG (D1)) it was 2.8.

In the case of m2^7,2′-OGppspG (D2) [Compound 5b], in test [1], the “Resistance to enzymatic hydrolysis” value was “hydrolyzed”. Further, the Relative translational efficiency in test [2] (listed as m2^7,2′-OGppSpG (D2)) is recorded as 5.1 ± 0.5; in test [2] (listed as m2^7,2′-OGppspG (D2)), 5.1.

Turning to m2^7,2′-OGpsppG (D1) [Compound 6a], in test [1], the “Resistance to enzymatic hydrolysis” value was “resistant”. Also, the Relative translational efficiency in test [2] amounted to 2.0 ± 0.1.

With m2^7,2′-OGpsppG (D2) [Compound 6b], the “Resistance to enzymatic hydrolysis” value in test [1] is on record as “resistant”. This compound had a Relative translational efficiency in test [2] of 1.9 ± 0.1.

These data come from patent US8153773B2, “Synthesis and use of anti-reverse phosphorothioate analogs of the messenger RNA cap” (Board of Supervisors of Louisiana State University and …, priority 2007, dated 2012).
